Results on one compound are retold here after patent US7675626B2, “Method of detecting drug resistant microorganisms by surface plasmon resonance system” (priority 2006, dated 2010).

The test system of assay [1] is ampicillin resistant strain (JM109 transformed by ampicillin resistant plasmid). Kind of assay: SPR angle shift, ampicillin resistance test (resistant strain). The format is cell-based, E. coli. An excerpt: (§1) On setting up the surface plasmon resonance, a He—Ne laser (wavelength=632.8 nm) was used as the light source. The laser beam passed through the polarizer to block […], and only p-polarization component could excite surface plasmon. The transmitted p-polarization beam was split into two beams via beam splitter (BS), one beam was detected by photodiode as reference light, and the other beam injected into prism at specific range of angles to decide surface plasmon angle. The reflected light was detected via the photodiode in the opposite side of prism as signal light. Surface plasmon was excited on Au metal film deposited on flat glass surface which attached on prism via matching oil. The current signal detected by photodiode was expanded via amplifier and transformed into voltage signal via 16-bit A/D converter (Adventech PCI-1716) The Y-axial represented the ratio of reference light and signal light, X-axial represented the incident angle of interface between prism and sample. Incident angle was controlled by controller which motor motorized stage with two arms. When surface plasmon resonance angle was detected, the energy of injected light was absorbed and surface plasmon resonance was achieved. This experimental setup was build by National Cheng-Kung University, department of Engineering Science, Adaptic Photonic Lab.
(§2) The bacteria used herein were JM109 strain, which was recA1 mutation that helped ensure insert stability. EndA1 mutation improved the quality of the plasmid miniprep DNA. HsdR17 mutation prevented the cleavage of cloned DNA by an endogenous endonuclease system.
(§3) Penicillin was referred to β-lactam drugs because of the importance of the β-lactam ring. An intact ting structure was essential for antibacterial activity. The cleavage of the ring by penicillinase (β-lactamase) inactivated the drug. The antibiotic bacteria strain used herein was transformed by ampicillin resistant plasmid that translated β-lactamase to cleave the ring of ampicillin. The bacteria was picked out by loop and planted in 5 ml LB broth over night, then transferred into 100 ml LB and incubated for two hours.
(§4) Diluted Poly-L-Lysine solution with deionized water prior to coating slides. The flat glass surface deposited with Au metal film was immersed in poly-L-lysine solution (concentration is […]) for at least 24 hours to interact with Au metal film, cells can be immobilized on biochips after incubation.
(§5) The sterilized DI water was injected into the flow chamber for 30 min to stabilize the system when biochip coated with poly-L-lysine was assembled. After balancing, the incubated LA broth was injected into the flow chamber for 210 minutes to cover the AU metal film. Subsequently, antibiotic solution was injected, and the surface plasmon resonance curve was observed on the computer.
(§6) Surface plasmon resonance system measured SPR angle continuously, and compared SPR curve of antibiotic susceptible and antibiotic resistant strain under the same condition. The SPR curve of antibiotic resistant strain was depicted in FIG. 2, and antibiotic susceptible strain SPR curve was depicted in FIG. 3. Experimental data represented that after 30 minutes of balance of the SPR system, the injection of bacteria LB broth increased the SPR angle. After 210 minutes, the extra bacteria were washed with deionized water and presented the decrease of SPR angle, then balanced for 10-20 minutes. Antibiotic solution was injected after the balance curve. […]

Assay [2] concerns ampicillin susceptible strain (JM109). Kind of assay: SPR angle shift, ampicillin sensitivity test (susceptible strain). The format is cell-based, E. coli. The settings on record: for susceptible surface plasmon resonance angle shift/resistant surface plasmon resonance angle shift: ratio susceptible/resistant strain.
Description: as §1, §2, §3, §4, §5, §6
A general note: SPR reads the build-up and loss of mass on a sensor chip optically.

Each structure is given as a SMILES string. “And” between values parts separate entries of the source, which are not always exact repeats. Equal entries are not always repeated.

Take `CC1(C)S[C@@H]2[C@H](NC(=O)[C@H](N)c3ccccc3)C(=O)N2[C@H]1C(=O)O` [ampicillin]: in assay [1] (Average of 4 repeats), the “Ampicillin resistant surface plasmon resonance angle shift” value is given as −0.02935. In addition, the “drop of SPR angle” value in assay [1] (standard kinetic plot (FIG. 2), after injection of antibiotics) is given as −0.02128 degree; in assay [1] (thirty minutes after antibiotic treatment (FIG. 4)), −0.00332 degree; in assay [2] (standard kinetic plot (FIG. 3), after injection of antibiotics), −0.06876 degree; in assay [2] (thirty minutes after antibiotic treatment (FIG. 5)), −0.01702 degree. Further, the “drop of SPR angle of resistant strain compared to susceptible strain” value in assay [1] (standard kinetic plot (FIGS. 2, 3)) is “approximately ⅓”; in assay [1] (thirty minutes after antibiotic treatment) it was “approximately ⅕”. Further, the “Ampicillin susceptible surface plasmon resonance angle shift” value in assay [2] (Average of 4 repeats) was −0.0659. Further, the “susceptible surface plasmon resonance angle shift/resistant surface plasmon resonance angle shift” value in assay [2] (Average of 4 repeats) is 2.377; in assay [2] (single repeat experiments), 1.9834 and 2.6208 and 3.2312 and 1.6729.
